# Measured values from patent publication US20120329787A1, “FUNGICIDAL PYRANONES AND OXAZINONES” (E.I. DU PONT DE NEMOURS AND COMPANY, priority 2011, published 2012).
# Key:
# Type in all cases: in vivo
# Septoria tritici = assay: Test F: wheat leaf blotch, spray on wheat seedlings the day before inoculation; conditions: 200 ppm test suspension
# In short: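 Wheat seedlings sprayed to run-off with 200 ppm (≈500 g/ha) or 40 ppm suspension in acetone/water with 250 ppm Trem 014. Next day inoculated with Septoria tritici spores, held 48 h saturated at 24° C, then 19 days at 20° C before visual disease rating.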
# Rhizoctonia solani = assay: Test D: turf brown patch, spray on creeping bent grass seedlings the day before inoculation; conditions: 200 ppm test suspension
# Excerpt: General protocol for preparing test suspensions for Tests A-I: the test compounds were first dissolved in acetone in an amount equal to 3% of the final volume and then suspended at the desired concentration (in ppm) in acetone and purified water (50/50 mix by volume) containing 250 ppm of the surfactant Trem® 014 (polyhydric alcohol esters). The resulting test suspensions were then used in Tests A-I. Spraying a 200 ppm test suspension to the point of run-off on the test plants was the equivalent of a rate of 500 g/ha. […] (An asterisk “*” next to the rating value indicates a 40 ppm test suspension was used.) The test suspension was sprayed to the point of run-off on creeping bent grass (Agrostis sp.) seedlings. The following day, the seedlings were inoculated with a bran and mycelial slurry of Rhizoctonia solani (the causal agent of turf brown patch) and incubated in a saturated atmosphere at 27° C. for 48 h, and then moved to a growth chamber at 27° C. for 3 days, after which time disease ratings were made. […] A dash (-) indicates no test results. All results are for 200 ppm except where followed by an asterisk “*”, which indicates a 40 ppm.
# Botrytis cinerea = assay: Test A: tomato Botrytis, spray on tomato seedlings the day before inoculation; conditions: 200 ppm test suspension
# In short: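 Tomato seedlings sprayed to run-off with compound suspension (200 ppm, ≈500 g/ha; some at 40 ppm) in acetone/water with 250 ppm Trem 014, inoculated next day with Botrytis cinerea spores. Held 48 h saturated at 20 °C, then 3 days at 24 °C; disease rated visually.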
# [1] = system: Puccinia recondita f. sp. tritici; assay: Test H: wheat leaf rust, spray on wheat seedlings the day before inoculation; conditions: 200 ppm test suspension, sprayed before inoculation
# In short: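 Wheat seedlings sprayed to run-off with compound suspensions (acetone/water with surfactant; 200 ppm ≈ 500 g/ha, or 40 ppm), inoculated next day with rust spores. Plants kept 24 h in saturated atmosphere at 20 °C, then 6 days in a 20 °C growth chamber before visual disease rating.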
# Septoria nodorum = assay: Test E: Septoria glume blotch, spray on wheat seedlings the day before inoculation; conditions: 200 ppm test suspension
# In short: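 Compounds in acetone/water (50/50) with 250 ppm Trem 014 surfactant, sprayed to run-off on wheat seedlings the day before Septoria nodorum inoculation. Tested at 200 ppm (equivalent to 500 g/ha) unless marked 40 ppm.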
# Phytophthora infestans = conditions: 200 ppm test suspension; tomato seedlings
# [2] = system: Erysiphe graminis f. sp. tritici; assay: Test I: wheat powdery mildew, spray on wheat seedlings the day before inoculation; conditions: 200 ppm test suspension
# In short: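 Wheat seedlings sprayed to run-off with compound at 200 ppm (40 ppm where marked; 200 ppm ≈ 500 g/ha) in acetone/water with 250 ppm surfactant. Inoculated next day with E. graminis spore dust; visual disease rating after 7 days at 20° C.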
# Alternaria solani = assay: Test B: tomato early blight, spray on tomato seedlings the day before inoculation; conditions: 200 ppm test suspension
# In short: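 Tomato seedlings sprayed to run-off with 200 ppm suspension (40 ppm where asterisked), inoculated next day with Alternaria solani spores. Kept 48 h at 27 °C in saturated atmosphere, then 5 days at 20 °C before visual disease rating.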
Compound,"Test F rating (100 = 100% disease control, 0 = no disease control) (Septoria tritici) [%]","Test D rating (100 = 100% disease control, 0 = no disease control) (Rhizoctonia solani) [%]","Test A rating (100 = 100% disease control, 0 = no disease control) (Botrytis cinerea) [%]","Test H rating (100 = 100% disease control, 0 = no disease control) [1] [%]","Test E rating (100 = 100% disease control, 0 = no disease control) (Septoria nodorum) [%]","Test C rating (100 = 100% disease control, 0 = no disease control) (Phytophthora infestans) [%]","Test I rating (100 = 100% disease control, 0 = no disease control) [2] [%]","Test B rating (100 = 100% disease control, 0 = no disease control) (Alternaria solani) [%]"
Cc1noc(=O)c(-c2cccc(F)c2)c1-c1ccccc1 [Compound 1],37,0,0,0,0,0,0,
COc1cc(OC)cc(-c2c(-c3ccccc3F)noc(=O)c2-c2ccc(F)cc2F)c1 [Compound 21],0,0,0,0,0,0,0,0
Cc1noc(=O)c(-c2c(F)cc(F)cc2F)c1-c1ccc(Cl)cc1 [Compound 3],99,78,99,98,0,9,99,100
Cc1noc(=O)c(-c2cccc(F)c2)c1-c1c(F)cccc1F [Compound 4],0,0,0,0,0,8,0,
Cc1noc(=O)c(-c2c(F)ccc(F)c2F)c1-c1ccc(Cl)cc1 [Compound 6],,0,99,41,0,0,96,99
Cc1noc(=O)c(-c2c(F)cccc2F)c1-c1ccc(Cl)cc1 [Compound 7],,75,100,99,0,0,100,100
COc1cc(OC)cc(-c2c(-c3ccccc3F)noc(=O)c2-c2c(F)cccc2F)c1 [Compound 22],0,8,0,0,0,0,0,0
Cc1noc(=O)c(-c2c(F)cc(F)cc2F)c1-c1ccc(Cl)c(F)c1 [Compound 16],97,0,0,0,0,0,0,0
Cc1noc(=O)c(-c2c(F)cc(F)cc2F)c1-c1ccc(F)cc1 [Compound 11],,26,100,98,64,0,100,99
Cc1noc(=O)c(-c2c(F)cc(F)cc2F)c1-c1ccc(Br)cc1 [Compound 10],,90,98,95,0,0,99,100
Cc1noc(=O)c(-c2ccc(Cl)cc2)c1-c1c(F)cccc1F [Compound 2],97,0,47,0,0,17,92,
